Measured values as given in BindingDB's records for patent US10844032 (Vanderbilt University, 2020).

Target: T1, Induced myeloid leukemia cell differentiation protein Mcl-1 [172-327] (Homo sapiens, UniProt Q07820)
T1 construct: 172-327
Assay: Binding Assay

T1 sequence (Q07820 172-327): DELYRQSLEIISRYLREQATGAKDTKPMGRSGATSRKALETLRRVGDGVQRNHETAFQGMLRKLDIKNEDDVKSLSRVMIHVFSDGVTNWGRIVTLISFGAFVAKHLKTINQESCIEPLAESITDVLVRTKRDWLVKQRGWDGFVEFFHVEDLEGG

Cc1cc(OCCCc2c(C(=O)NS(=O)(=O)c3ccccc3)[nH]c3c(-c4c(COc5ccccn5)nn(C)c4C)cccc23)cc(C)c1Cl [US10844032, Example 306]
Ki: < 100 nM

Cc1cc(OCCCc2c(C(=O)NS(=O)(=O)c3ccccc3)[nH]c3c(-c4c(COc5cccnc5)nn(C)c4C)cccc23)cc(C)c1Cl [US10844032, Example 307]
Ki: < 100 nM
